Experimental data taken from US10005754B2, “Form of spirodiclofen, a process for its preparation and use the same” (priority 2015, dated 2018).

Experiment: Comparison of storage stability of suspension concentrates (CIPAC MT 46.3)
Type: physicochemical
Procedure: Samples prepared in Examples 4 and 5 were stored at 54° C. for 1 month, 3 months and 6 months. The procedures are followed according to CIPAC MT 46.3. The concentration of spirodiclofen was measured at the end of each storage time by HPLC. The aggregation was measured by observation. The original concentration of spirodiclofen in each formulation was 25%.

| Structure (SMILES) | storage stability / aggregation after prolong storage (listed as spirodiclofen in amorphous state) | storage stability / aggregation after prolong storage (listed as crystalline modification I of spirodiclofen) |
| --- | --- | --- |
| CCC(C)(C)C(=O)OC1=C(c2ccc(Cl)cc2Cl)C(=O)OC12CCCCC2 [Example 1, 3-(2,4-dichlorophenyl)-2-oxo-1-oxaspiro[4.5]dec-3-en-4-yl-2,2-dimethyl butyrate] | high tendency of aggregation | – |
| CCC(C)(C)C(=O)OC1=C(c2ccc(Cl)cc2Cl)C(=O)OC12CCCCC2 [Example 2, 3-(2,4-dichlorophenyl)-2-oxo-1-oxaspiro[4.5]dec-3-en-4-yl-2,2-dimethyl butyrate] | – | significant improvement in its stability without aggregation |
